Assay results reported in patent publication US10196356B2, “Mixed disulfide conjugates of thienopyridine compounds and uses thereof” (The Regents of the University of Michigan, priority 2013, dated 2019).
Read-outs that look alike come from different tables or passages of the source.

Legend:
platelet aggregation = experiment: In vivo antiplatelet activity after intravenous injection; set-up: species or system male New Zealand (NZ) white rabbits
Method: FIG. 9 presents platelet activities of male NZ white rabbits following IV injection of (S)-clopNPT as described in Example X.
The antiplatelet activity of the mixed disulfide conjugates of clopidogrel was determined using male NZ white rabbits (1.2-1.25 kg).
To prepare intravenous solution, (S)-clopNPT was dissolved at 0.7 mg/ml in a mixture of N,N-dimethylacetamide (DMA), polyethylene glycol (PEG) 400, and saline at 5, 15 and 80 (v/v) ratio. The male NZ white rabbits were dosed at 2 mg/kg of (S)-clopNPT using two different methods. In Method 1, the intravenous solution was first mixed with 5 mM glutathione. After an incubation of 15 min at 37° C. to activate (S)-clopNPT, the mixture was intravenously injected to the rabbit via the jugular vein. In Method 2, the male NZ white rabbit was fed with 5 ml of Readisorb glutathione solution once daily for three days to increase cellular glutathione concentrations. On the third day, (S)-clopNPT dissolved in DMA/PEG400/saline was injected intravenously to the Readisorb-treated rabbit. As a negative control, (S)-clopidogrel was dosed intravenously to a male NZ white rabbit at 2 mg/kg as well. Prior to and 1 and 2 hours after dosing (S)-clopNPT, whole blood was drawn from the carotid artery into a plastic syringe containing 3.7% sodium citrate as the anticoagulant (1:10 volume ratio of citrate to blood). A whole blood cell count was determined with a Medonic CA620 hematology analyzer (Clinical Diagnostic Solutions, Inc., Plantation, Fla., USA). Platelet-rich plasma (PRP), the supernatant present after centrifugation of whole blood at 100×g for 10 min, was diluted with platelet-poor plasma (PPP) to achieve a platelet count of approximately 300,000/μl. […] Platelet aggregation was assessed by established nephelometric methods with the use of a 4-channel aggregometer (BioData PAP-4; BioData Corp., Horsham, Pa., USA) by recording the increase in light transmission through a stirred suspension of PRP maintained at 37° C. […]

[1] = Rate of formation of the AM from 2-oxoclopidogrel by HLMs in the presence of various thiol reductants; assay type: in vitro ADME, human; conditions: 0.3 mM thiol reductant; HLM, 0.1 mM 2-oxoclopidogrel
Method: The AM was produced in 0.1 ml of 50 mM KP buffer (pH 7.4) containing 0.2 mg/ml HLM, 0.1 mM 2-oxoclopidogrel, the NADPH-regenerating system, and the thiol reductants. The concentrations of the thiol reductants were 1 mM except for CPT, DFT and NPT which were 0.3 mM each. The reaction was initiated by the addition of 5 units of G6PD and incubated at 37° C. for 20 min. The active metabolite was then quantitated as the MP derivative as described in Materials and Methods. The reported rates were averaged over three separate measurements.
To examine the effects of various thiol reductants on the formation of the active metabolite (AM), the rates at which the AM was produced were determined. Production of the AM was performed in 0.1 ml of 50 mM potassium phosphate (KPi) buffer (pH 7.4) containing 0.2 mg/mL HLM, 0.1 mM 2-oxoclopidogrel, the NADPH-regenerating system, and 1 mM of each of the thiol reductants except that 0.3 mM CPT, DFT, or NPT were used. The reaction was initiated by the addition of 5 units of glucose-6-phosphate dehydrogenase (G6PD) and incubated at 37° C. for 20 min. The AM was then derivatized with 4 mM MPB at room temperature for 10 min, followed by acidification with acetic acid to 3% (v/v). For quantification, 50 pmoles of (S)-clopidogrel was added into each reaction mixture as internal standard (IS). The derivatized AM (AM-MP) was quantitated using LC-MS/MS.
The MS analyses of the reaction mixture were performed on an ion-trap mass spectrometer (LCQ DecaXP, Thermo Fisher Scientific, Waltham, Mass.) as reported previously (Zhang et al., 2012). In brief, the metabolites of 2-oxoclopidogrel were separated on a reverse phase C18 column (2×100 mm, 3 μm, Phenemonex, Calif.) using a binary mobile phase at a flow rate of 0.2 ml/min. The temperature of the C18 column was maintained at 40° C. using a column heater (Restek Corporation, Lancaster, Pa.). […] Transitions from m/z 504→m/z 354 for the AM-MP and from m/z 322→m/z 212 for the IS were used to quantitate the amount of the AM-MP based on a calibration curve consisting of various concentrations of cis-clopidogrel-MP.

[2] = Formation of mixed disulfide conjugates of clopidogrel by HLMs (Km of thiol); assay type: in vitro ADME, human; conditions: 2-oxoclopidogrel, read-out: Km for the formation of the mixed disulfide conjugate
Method: The mixed disulfide conjugates were produced by HLMs for both structural and semi-quantitative analyses. Metabolism of 2-oxoclopidogrel was performed in 0.2 ml of 50 mM KP buffer (pH 7.4) as described above except that the concentration of HLMs was increased to 1 mg/ml. The reaction was incubated at 37° C. for 30 min and then quenched by the addition of 0.1 ml of 10% of acetic acid in acetonitrile. The quenched samples were centrifuged at 13,000×g for 10 min to remove the HLMs. Aliquots of 50 μl of the supernatant were loaded onto a mass spectrometer to analyze both the active and conjugate metabolites.
The MS analyses were performed as described above except that the MS detector was operated in the dependent scan mode. The precursor ions were scanned from m/z 300-700, whereas the MS^2 spectra were obtained from m/z 100 to 700 for the four most abundant ions. For semi-quantitative analysis, 50 pmoles of the IS was spiked into each sample that had been quenched. The relative amounts of the AM and respective conjugates were calculated as the AUC ratios of the metabolites to that of the IS.

[3] = test system: platelets (P2Y12 receptor); experiment: Ex vivo anti-platelet activity of the mixed disulfide conjugates (ADP-induced aggregation, aggregometer); assay type: cell-based, New Zealand white rabbits; conditions: free GSH 1 mM in PRP; 10 μM ADP
Method: The mixed disulfide conjugates were prepared and purified from the reaction mixtures in the presence of 0.3 mM CPT and NPT, along with three control samples containing either 1 mM GSH, no thiol reductant or no G6PD. All samples were re-suspended in 0.5 ml PPP, some of which were treated to 1 mM GSH to release the AM. Platelet aggregation was initiated by the addition of 10 μM ADP and recorded with an aggregometer. The percentage of aggregation was normalized to that of PRP and averaged over four separate measurements. For details, see Materials and Methods. Legend: PRP, untreated platelet-rich plasma; GSH, 1 mM GSH in PRP; −G6PD, metabolites produced in the absence of G6PD; —SH, metabolites produced in the absence of any thiol reductants; GSH, metabolites produced in the presence of 1 mM GSH; CPT, metabolites produced in the presence of 0.3 mM CPT; CPT+GSH, metabolites produced in the presence of 0.3 mM CPT and then treated with 1 mM GSH; NPT, metabolites produced in the presence of 0.3 mM NPT; NPT+GSH, metabolites produced in the presence of 0.3 mM NPT and then treated with 1 mM GSH.
In order to generate sufficient quantities of the mixed disulfide conjugates, the metabolism of 2-oxoclopidogrel was performed in 2-ml reaction mixtures containing 1 mg/ml HLM, 0.1 mM 2-oxoclopidogrel, the NADPH-regenerating system, and 0.3 mM CPT or NPT or 1 mM GSH. The reaction was initiated by the addition of 10 units G6PD and incubated at 37° C. for 50 min. Two control samples were prepared in parallel. […] After an incubation of 50 min, the reaction mixtures were centrifuged at 13,000×g to remove the HLMs. The supernatants were loaded onto SPE C18 cartridges to enrich the mixed disulfide conjugates. After extensive washing with water to remove salts and other water-soluble metabolites, the conjugate samples were eluted with 2 ml of methanol. The methanolic fractions were dried using a Speedvac concentrator and the dried samples were then re-suspended in 1 ml of platelet-poor plasma (PPP). Prior to the anti-platelet activity assays, the re-suspended conjugates were divided into two equal volumes (0.5 ml each), one of which was treated with 1 mM GSH at 37° C. for 30 min to generate the AM. Both samples were then placed on ice until use.
The procedures used to determine ex vivo anti-platelet activity were previously reported (see, e.g., Abell L M and Liu E C (2011) J Pharm Exp Ther 339(2):589-596).
Male New Zealand white rabbits (2.2-2.9 kg) were used as blood donors. Whole blood was drawn from a central ear artery into a plastic syringe containing 3.7% sodium citrate as the anticoagulant (1:10 volume ratio of citrate to blood). A whole blood cell count was determined with a Medonic CA620 hematology analyzer (Clinical Diagnostic Solutions, Inc., Plantation, Fla., USA). Platelet-rich plasma (PRP), the supernatant present after centrifugation of whole blood at 100×g for 10 min, was diluted with PPP to achieve a platelet count of approximately 300,000/μl. Platelet-poor plasma was prepared by centrifuging the remaining blood at 1,500×g for 10 min and discarding the bottom cellular layer. The diluted PRP was divided into 0.5 ml samples, centrifuged again at 170×g for 10 mins, and the resulting supernatant was discarded. The platelet pellets were re-suspended in platelet-poor plasma containing the various chemical inhibitors prepared as described previously and incubated with gentle shaking at 37° C. for 60 min to modify the P2Y12 receptor. Ex vivo platelet aggregation was assessed by established nephelometric methods with the use of a 4-channel aggregometer (BioData PAP-4; BioData Corp., Horsham, Pa., USA) by recording the increase in light transmission through a stirred suspension of PRP maintained at 37° C. Platelet aggregation was induced with ADP (10 μM). A subaggregatory concentration of epinephrine (550 nM) was used to prime the platelets before addition of the agonist.

[4] = read-out: Km for GSH; previously reported (Zhang 2012); cited from earlier work

| SMILES | formation of the AM (in words) [1] | Km [2] [µM] | further results |
| --- | --- | --- | --- |
| COC(=O)C(c1ccccc1Cl)N1CCC(SSc2ncccc2[N+](=O)[O-])C(=CC(=O)O)C1 [(S)-clopNPT] | – | – | inhibition of platelet activity (platelet aggregation; 2 mg/kg IV, Readisorb-treated rabbit, within one hour of IV injection): ~70%; inhibition of platelet aggregation (platelet aggregation; 2 mg/kg IV, dosed with glutathione or to Readisorb glutathione treated rabbit): more than 50% |
| COC(=O)[C@H](c1ccccc1Cl)N1CCc2sccc2C1 [(S)-clopidogrel, (+)-(S)-methyl 2-(2-chlorophenyl)-2-(6,7-dihdrothieno[3,2-c]pyridine-5(4H)-yl)acetate, reference compound] | – | – | inhibition of platelet aggregation (in words) (platelet aggregation; 2 mg/kg intravenously, blood 1 and 2 hours after dosing, 10 μM ADP): did not inhibit platelet aggregation |
| N[C@@H](CCC(=O)N[C@@H](CS)C(=O)NCC(=O)O)C(=O)O [GSH, glutathione, reference compound] | – | – | effect on platelet aggregation [3]: no effect on platelet aggregation; Km [4]: 300 µM |

The next lines start with results.

| formation of the AM (in words) [1] | Km [2] [µM] | SMILES | further results |
| --- | --- | --- | --- |
| No AM was observed | 23 | Sc1ccc(Cl)nn1 [CPT, 6-chloropyridazine-3-thiol] | – |
| No AM was observed | 30 | Cc1cc(S)c(C)o1 [DFT, 2,5-dimethylfuran-3-thiol] | – |
| No AM was observed | 51 | O=[N+]([O-])c1cccnc1S [NPT, 3-nitropyridine-2-thiol] | – |
